# Measurements as given in US11891422B2 (priority 2018, dated 2024).
# Read-outs that look alike come from different tables or passages of the source.
# Legend:
# [1] = in vitro; settings: human
# Procedure: (§1) Cytotoxicity of these hits was assayed using CellTiter Glo viability assay.
# [2] = test system: BC-3 PEL cell line; assay: CellTiter-Glo cell viability assay, BC-3; settings: read-out: BC-3 LC50 (μM)
# Procedure: Media was supplemented with 20% FBS 3 hours post-peptide treatment.
# as §1
# [3] = Serum stability assay; type: in vitro ADME; settings: 25% fetal bovine serum in RPMI, 60 μM peptide, read-out: initial peptide remaining intact
# Procedure: Time points of 30 minutes, 1 hr, 2 hr, 8 hr, and 24 hrs were analyzed in triplicate. Each reaction was started upon addition of FBS to 60 μM peptide. Reactions were quenched at time points with addition of 100% EtOH, chilled on ice for 10 minutes, and pelleted at 12,000 RPM. Supernatant was injected onto an Agilent analytical HPLC equipped with an XTerra RP18 3.5 μm 2.1×150 mm column (Part No. 186000410) and visualized at 220 nm. Integration of peak areas was used to determine percent degradation of peptides. Mass of cleaved products were determined using Matrix assisted laser desorption ion time of flight (MALDI-TOF) spectroscopy.
# [4] = Circular dichroism thermal denaturation; type: physicochemical; settings: CD spectra between 5-95° C.
# Source text: (§2) Data plotted represent mean±s.e.m of three replicate experiments. TR-FRET signal was normalized to DMSO control and expressed as percent inhibition. […] Data shown represent mean±s.d. of two independent experiments performed in triplicate. Data was normalized to c. (FIG. 3C) The conformation of the coiled coil mimics was investigated by circular dichroism spectroscopy in aqueous buffer. The reported values represent mean±s.e.m of two independent experiments. […] The circular dichroism spectra were collected at regular intervals between 5-95° C. Data shown represent one experiment where scans were recorded five times over the temperature range. […] Peptide degradation was probed over 24 h by HPLC. […] Cells were visualized by fluorescence microscopy after 1 hour incubation. […] Hoechst stain was used to detect the nuclei. Representative live confocal images from at least three replicate experiments are shown.
# Circular Dichroism Spectroscopy: CD spectra were recorded on a Jasco J-1500 Circular Dichroism Spectrophotometer equipped with a temperature controller using 1 mm length cells and a scan speed of 4 nm/min at 298K. The spectra were averaged over 4 scans with the background subtracted to the analogous experimental conditions. […] The concentrations of each peptide were determined by the UV absorption at 280 nm.
# [5] = test system: BC-1 cells; assay: Live cell confocal microscopy cellular uptake; type: in vitro ADME
# Procedure: Live Cell Confocal Microscopy and Analysis: BC1 PEL cells in the exponential phase were resuspended in RPMI 1640 media supplemented with 50 μg/ml gentamicin in the absence of serum and treated with a final concentration of 0.125% DMSO or 500 nM FITC-labeled peptide at 37° C., cold or in the presence of 10 mM sodium azide. Cells were then added to 35 mm glass bottom MatTek poly-lysine coated plates (p356c-0-10C) and immunofluorescence images were captured using LSM880 confocal miscroscope with Airyscan resolution detector, spectral detector and incubation. Images were processed using Fiji software (FIG. 14).
# Inhibition of the vFLIP-NEMO complex formation in KSHV-infected PEL cells requires the inhibitor to be cell permeable. […] In order to probe cellular entry mechanism, we performed cellular uptake experiments at 4° C. as well as with sodium azide poisoning to reduce ATP-mediated active transport mechanisms without affecting overall cellular viablity (Patgiri et al., Nat. Chem. Biol. 7:585-7 (2011); which is hereby incorporated by reference in its entirety).
# [6] = test system: BC-3-luc PEL cells xenograft; assay: PEL in vivo xenograft mouse model; design: species or system NOD/SCID mice; settings: 20 mg/kg intraperitoneally, 9 consecutive days
# Procedure: PEL in Vivo Xenograft Mouse Model Study: […] BC3NFRen-luc #3 were injected intraperitoneally into 4-6 week-old male NOD/SCID mice. […] The tumor burden or bioluminescence (photons/s/cm^2/steradian) was monitored by live imaging and weighing, with the sacrificial endpoint determined to be a net gain or loss of 10% body weight over a week.
# We next tested its antitumor activity in vivo. We injected 10×10^6 BC-3-luc PEL cells into the peritoneal cavity of NOD-SCID mice and monitored tumor burden by bioluminescence imaging.
# [7] = test system: full length NEMO; assay: Fluorescence polarization direct binding assay, specificity over NEMO; settings: FITC-labeled peptide
# Source text: as §2
# The polarization experiments were performed using a DTX 880 Multimode Detector (Beckman) at 25° C. with excitation and emission wavelengths of 485 and 525 nm, respectively. Each polarization experiment was performed in a 96-well round bottom plate (Greiner) in assay buffer: Tris glycerol pluronic acid. The binding affinity (KD) values reported for each peptide are from experiments performed in triplicate. […]
# [8] = test system: Namalwa Burkitt lymphoma cell line; settings: EBV+, read-out: PU-H71 LC50; cited from earlier work
# [9] = test system: BC-2 PEL cell line; settings: BC-2, KSHV+/EBV+; read-out: PU-H71 LC50; cited from earlier work
# [10] = test system: Namalwa Burkitt lymphoma cell line; assay: CellTiter-Glo cell viability assay, Namalwa; type: cell-based
# [11] = target: T1, vFLIP/NEMO complex in vFLIP-FLAG doxycycline-inducible Namalwa cell line (Human herpesvirus 8 type P, UniProt F5HEZ4); assay: Co-immunoprecipitation of vFLIP-FLAG and NEMO; type: cell-based; settings: 24 hrs treatment, increasing concentrations
# T1 construct: expressed in transfected cells; host or cells: Namalwa Burkitt lymphoma cells, lentivirally transduced (pLVX-TetOne-puro), doxycycline-induced
# T1 sequence (F5HEZ4 whole entry, one chain of several): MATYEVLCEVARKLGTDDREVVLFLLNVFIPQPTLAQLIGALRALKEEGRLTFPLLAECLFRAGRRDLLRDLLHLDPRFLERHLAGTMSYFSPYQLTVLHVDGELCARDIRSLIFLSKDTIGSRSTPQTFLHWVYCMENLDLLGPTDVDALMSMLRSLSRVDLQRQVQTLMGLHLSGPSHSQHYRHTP
# Procedure: Co-Immunoprecipiation: FLAG-tagged WT vFLIP or a vFLIP NF-κB dead mutant (vFLIP^AAA(58-60)) inducible Namalwa Burkitt lymphoma cell lines were used. Expression of WT vFLIP or mutant vFLIP was attained by treating cells with 1 μg/mL doxcycline for 24 hrs. […] 4 hours post-treatment, media was supplemented with 20% FBS and treatment continued for another 24 hrs. Next day, uninduced Namalwa WT vFLIP cell line, treated Namalwa WT vFLIP expressing cell lines as well as Namalwa expressing mutant vFLIP and parental Namalwa cell lines were harvested, washed in PBS and lysed on ice for 30 minutes using CelLytic M lysis reagent (Sigma, cat. C2978) supplemented with protease inhibitor cocktail (calbiochem, cat 539134). Cells were spun down and some of supernatants was saved for input and the rest was immunoprecipitated overnight using anti-FLAG M2beads (Sigma, cat. A2220) that were pre-equilibrated with the same buffer. […]
# Immunoblotting: For co-immunoprecipitation study, eluted protein lysates were separated using pre-casted 10% sodium dodecyl sulfate-polyacrylamide gel electrophoresis SDS-PAGE gel (Bio-rad). […] Secondary anti-HRP rabbit antibody was used at 1:5000 dilution (GE healthcare) and chemiluminescent signal was detected using enhanced chemiluminescence (ECL) substrate (thermo Fisher Scientific) and autoradiography. […]
# [12] = test system: PEL cell lines (BC-1, BC-3, BCBL-1); assay: CellTiter-Glo cytotoxicity in panel of PEL cell lines; type: cell-based; settings: FIG. 5A
# [13] = test system: BC-3 PEL cell line; settings: BC-3, KSHV+; read-out: PU-H71 LC50; cited from earlier work
# [14] = test system: BC-1 PEL cell line; settings: BC-1, KSHV+/EBV+; read-out: PU-H71 LC50; cited from earlier work
# [15] = test system: BCBL-1 PEL cell line; settings: BCBL-1, KSHV+; read-out: PU-H71 LC50; cited from earlier work
Structure (SMILES),CC50 [1] [µM],CC50 [2] [µM],further results
CCOc1ccc2nc3cc(N)ccc3c(N)c2c1 [Compound 2],7.7,12.2,
CC[C@H](C)[C@H](NC(=O)[C@H](CC(C)C)NC(=O)[C@H](CCC(=O)O)NC(=O)[C@H](CC(=O)O)NC(=O)[C@@H](NC(=O)[C@H](CCCCn1cc(COCc2cn(CCCC[C@H](NC(=O)[C@H](CC(C)C)NC(=O)[C@H](CCCNC(=N)N)NC(=O)[C@H](CCCNC(=N)N)NC(=O)[C@@H](NC(=O)[C@H](CCC(=O)NC3CCCCC3)NC(=O)[C@H](CCC(=O)O)NC(=O)[C@H](Cc3c[nH]c4ccccc34)NC(=O)[C@H](CC(C)C)NC(=O)[C@H](CCC(N)=O)NC(=O)[C@H](CCCNC(=N)N)NC(=O)[C@@H](NC(=O)[C@H](Cc3c[nH]c4ccccc34)NC(=O)[C@H](CCC(=O)O)NC(C)=O)[C@@H](C)CC)[C@@H](C)CC)C(N)=O)nn2)nn1)NC(=O)[C@H](CCCNC(=N)N)NC(=O)[C@H](Cc1ccccc1)NC(=O)[C@H](CC(C)C)NC(=O)[C@H](CCCNC(=N)N)NC(=O)[C@H](Cc1c[nH]cn1)NC(=O)[C@@H](NC(=O)[C@H](CCC(=O)O)NC(C)=O)[C@@H](C)CC)[C@@H](C)CC)C(=O)N[C@@H](CCCNC(=N)N)C(N)=O [CHD3^NEMO],,,"remaining at 24 h, 60 μM [3]: ~80%; conformational stability (helix percentage vs temperature) [4]: retain a significant proportion of helix percentage at high temperatures; cellular uptake at cold temperatures and with sodium azide ([5]; 4° C., 10 mM sodium azide): reduction in cellular uptake; observed toxicity [6]: without any observed toxicity"
CCCCC(CC)CNC(=N)NC(=N)NCCCCCCNC(=N)NC(=N)NCC(CC)CCCC (stereo not drawn) [Compound 9],3.8,3.9,
c1ccc2c(c1)Nc1ccccc1S2 [Compound 3],63,62.7,
O=C(C1CCCN1c1ncccn1)N1CCc2c(Cl)cccc2C1 (stereo not drawn) [Compound 7],31.6,39.9,
CN(Cc1ccc2cccnc2c1)S(=O)(=O)c1cccs1 [Compound 4],> 100,> 100,
CC[C@H](C)[C@H](NC(=O)[C@H](CC(C)C)NC(=O)[C@H](CCC(=O)O)NC(=O)[C@H](CC(=O)O)NC(=O)[C@@H](NC(=O)[C@H](CCCCn1cc(COCc2cn(CCCC[C@H](NC(=O)[C@H](CC(C)C)NC(=O)[C@H](CCCNC(=N)N)NC(=O)[C@H](CCCNC(=N)N)NC(=O)[C@@H](NC(=O)[C@H](CCC(=O)NC3CCCCC3)NC(=O)[C@H](CCC(=O)O)NC(=O)[C@H](Cc3c[nH]c4ccccc34)NC(=O)[C@H](CC(C)C)NC(=O)[C@H](CCC(N)=O)NC(=O)[C@H](CCCNC(=N)N)NC(=O)[C@@H](NC(=O)[C@H](Cc3c[nH]c4ccccc34)NC(=O)[C@H](CCC(=O)O)NC(=O)CCNC(=S)Nc3ccc4c(c3)C(=O)OC43c4ccc(O)cc4Oc4cc(O)ccc43)[C@@H](C)CC)[C@@H](C)CC)C(N)=O)nn2)nn1)NC(=O)[C@H](CCCNC(=N)N)NC(=O)[C@H](Cc1ccccc1)NC(=O)[C@H](CC(C)C)NC(=O)[C@H](CCCNC(=N)N)NC(=O)[C@H](Cc1c[nH]cn1)NC(=O)[C@@H](NC(=O)[C@H](CCC(=O)O)NC(C)=O)[C@@H](C)CC)[C@@H](C)CC)C(=O)N[C@@H](CCCNC(=N)N)C(N)=O [FITC-CHD3^NEMO],,,"time to enter BC-1 cells ([5]; 500 nM FITC-labeled peptide, 37° C.): ≤ 30 min; binding to wild-type NEMO coiled coil [7]: failed to bind wild-type NEMO coiled coil"
Cc1cccc(-c2cccc(CNC(=O)NCCS(C)(=O)=O)c2)c1 [Compound 8],> 100,> 100,
CC(=O)N1CCc2cc(C(=O)C(C)Oc3ccc(C#N)cc3Cl)ccc21 (stereo not drawn) [Compound 6],69.7,35.9,
Cc1cc(CNC(=O)NC2CCCC2)cc(C)c1O [Compound 5],> 100,> 100,
CC(C)NCCCn1c(Sc2cc3c(cc2I)OCO3)nc2c(N)ncnc21 [PU-H71],,,CC50 [8]: 0.337 µM; CC50 [9]: 0.0271 µM; sensitivity of vFLIP-negative Namalwa cells [10]: showed sensitivity; disruption of vFLIP/NEMO complex (NEMO pulled down by FLAG beads) [11]: disrupted the complex and destabilized both vFLIP and NEMO; sensitivity of PEL cell lines [12]: showed sensitivity; CC50 [13]: 0.0634 µM; CC50 [14]: 0.0369 µM; CC50 [15]: 0.217 µM
